# Measurements as given in patent publication US20060003950A1, “Method of treating prostatic diseases using a combination of vitamin D analogues and other agents” (priority 2004, published 2006).
# How the values were obtained:
# vitamin D receptor (VDR) = target: T1, vitamin D receptor (VDR) (Homo sapiens, UniProt P11473); assay: Vitamin D-inducible growth hormone reporter production in transfected COS-1 cells
# T1 sequence (P11473 1-427): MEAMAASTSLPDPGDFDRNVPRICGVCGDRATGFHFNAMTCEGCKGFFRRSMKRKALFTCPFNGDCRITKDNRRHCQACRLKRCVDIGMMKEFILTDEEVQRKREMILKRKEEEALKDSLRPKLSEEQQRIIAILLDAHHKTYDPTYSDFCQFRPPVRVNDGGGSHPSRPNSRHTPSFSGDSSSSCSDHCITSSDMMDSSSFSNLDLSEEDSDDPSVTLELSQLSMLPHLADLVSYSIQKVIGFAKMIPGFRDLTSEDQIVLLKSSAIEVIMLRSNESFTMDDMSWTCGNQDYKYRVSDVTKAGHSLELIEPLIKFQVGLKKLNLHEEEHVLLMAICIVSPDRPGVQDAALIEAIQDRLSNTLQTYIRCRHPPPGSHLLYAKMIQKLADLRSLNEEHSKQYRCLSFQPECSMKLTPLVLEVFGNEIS
# Protocol: Cells in culture were co-transfected into Green monkey kidney, COS-1 cells with these two plasmids. One plasmid contained the gene for Growth Hormone (GH) under the control of the vitamin D responsive element (VDRE) and the other plasmid contained the structural gene for the vitamin D receptor (VDR). These transfected cultures were incubated with 1α,24-(OH)2D2 or 1α,25-(OH)2D3, and the production of growth hormone was measured.
# LNCaP [1] = assay: Stimulation of prostate cell differentiation (PSA), LNCaP; type: cell-based, human; conditions: 10^−11 M to 10^−7 M, 6-7 days
# Protocol: Using the techniques of Skowronski et al., 132 Endocrinology (1993) 1952-1960 and 136 Endocrinology (1995) 20-26, both of which are incorporated herein by reference, cells of the cell line, LNCaP, which is derived from a human metastatic prostate adenocarcinoma and known to express PSA, are seeded in six-well tissue culture plates at a density of about 50,000 cells/plate. After the cells have attached and stabilized, about 2-3 days, the medium is replenished with medium containing vehicle or the active vitamin D analogue, 1α,24-(OH)2D2, at concentrations from 10^−11 M to 10^−7 M. After 6-7 days, the medium is removed and stored at −20° C. for prostate specific antigen (PSA) analysis.
# The cells from parallel cultures are rinsed, precipitated, and the amount of DNA determined by standard procedures. PSA is measured by standard known methods.
# PC-3 = assay: Inhibition of prostate cell proliferation (DNA amount), PC-3; type: cell-based, human; conditions: PC-3, 10^−11 M to 10^−7 M, 6-7 days
# Protocol: (§1) The cell lines, LNCaP and PC-3, which are derived from human prostate adenocarcinoma, are seeded in six-well tissue culture plates at a density of about 50,000 cells/plate. After the cells have attached and stabilized, about 2-3 days, the medium is replenished with medium containing vehicle or the active vitamin D analogue 1α,24-(OH)2D2, at concentrations from 10^−11 M to 10^−7 M. Medium containing test analogue or vehicle is replaced every three days. After 6-7 days, the medium is removed, the cells are rinsed, precipitated with cold 5% trichloroacetic acid, and washed with cold ethanol. The cells are solubilized with 0.2 N sodium hydroxide, and the amount of DNA determined by standard procedures.
# LNCaP [2] = assay: Inhibition of prostate cell proliferation (DNA amount), LNCaP; type: cell-based, human; conditions: 10^−11 M to 10^−7 M, 6-7 days
# Protocol: as §1
# prostate VDR = target: T2, prostate VDR (Homo sapiens, UniProt P11473); assay: VDR binding in soluble extract of prostate-derived cell lines, competition with 3H-1α,25-(OH)2D3; conditions: 0.01-100 nM against 1 nM 3H-1α,25-(OH)2D3, 16-20 hr at 4° C.
# T2 construct: endogenous in cells
# T2 sequence (P11473 1-427): T1 sequence (P11473 1-427)
# Protocol: Prostate-derived cell lines are cultured to near confluence, washed and harvested by scraping. Cells are washed by centrifugation, and the cell pellet resuspended in a buffered salt solution containing protease inhibitors. The cells are disrupted by sonication while cooling on ice. The supernatant obtained from centrifuging the disrupted cells at 207,000×g for 35 min at 4° C. is assayed for binding. […] Bound and free hormones are separated with hydroxylapatite using standard procedures. Specific binding is calculated by subtracting nonspecific binding obtained in the presence of a 250-fold excess of nonradioactive 1α,25-(OH)2D3 from the total binding measured.
# [3] = test system: Patients with advanced androgen-independent prostate cancer; assay: Open-labeled clinical study of oral 1α,24-(OH)2D2; type: in vivo; conditions: daily oral, first phase
# From the text: On admission to the study, patients begin a course of therapy with oral 1α,24-(OH)2D2 lasting 26 weeks, while discontinuing any previous use of calcium supplements, vitamin D supplements, and vitamin D hormone replacement therapies. During treatment, the patients are monitored at regular intervals for: (1) hypercalcemia, hyperphosphatemia, hypercalciuria, hyperphosphaturia and other toxicity; (2) evidence of changes in the progression of metastatic disease; and (3) compliance with the prescribed test drug dosage.
# The study is conducted in two phases. During the first phase, the maximal tolerated dosage (MTD) of daily oral 1α,24-(OH)2D2 is determined by administering progressively higher dosages to successive groups of patients. All doses are administered in the morning before breakfast. […] Subsequent groups of patients are treated with 50.0, 75.0 and 100.0 μg/day.
# During the second phase, patients are treated with 1α,24-(OH)2D2 for 24 months at 0.5 and 1.0 times the MTD.
structure (smiles),measurement,setting,value
"C=C1/C(=C\C=C2/CCC[C@]3(C)[C@@H]([C@H](C)/C=C/[C@](C)(O)C(C)C)CC[C@@H]23)C[C@@H](O)C[C@@H]1O [1α,24(R)—(OH)2D2, 1α,24(R)-dihydroxy-vitamin D2]",Total GH Production*,vitamin D receptor (VDR); Molar Concentration 1 × 10^−7,1300 ng/mL
same,Total GH Production*,vitamin D receptor (VDR); Molar Concentration 1 × 10^−8,1100 ng/mL
same,Total GH Production*,vitamin D receptor (VDR); Molar Concentration 1 × 10^−9,80 ng/mL
"C=C1/C(=C\C=C2/CCC[C@]3(C)[C@@H]([C@H](C)/C=C/[C@@](C)(O)C(C)C)CC[C@@H]23)C[C@@H](O)C[C@@H]1O [1α,24(S)—(OH)2D2, 1α,24(S)-dihydroxyvitamin D2]",Total GH Production*,vitamin D receptor (VDR); Molar Concentration 5 × 10^−8,1182 ng/mL
same,Total GH Production*,vitamin D receptor (VDR); Molar Concentration 5 × 10^−9,1350 ng/mL
same,Total GH Production*,vitamin D receptor (VDR); Molar Concentration 5 × 10^−10,425 ng/mL
"C=C1/C(=C\C=C2/CCC[C@]3(C)[C@@H]([C@H](C)/C=C/C(C)(O)C(C)C)CC[C@@H]23)C[C@H](O)C[C@H]1O (stereo partly drawn) [1α,24-(OH)2D2, 1α,24-dihydroxyvitamin D2]","PSA versus control cultures, mass of PSA/cell",LNCaP [1],significantly more PSA than control cultures
same,cell number versus control cultures,PC-3,significantly fewer cells than the control cultures
same,cell number versus control cultures,LNCaP [2],significantly fewer cells than the control cultures
same,affinity for prostate VDR,prostate VDR,strong affinity
same,"MTD relative to level achievable with 1α,25-(OH)2D3",[3],10- to 40 fold
same,maximal tolerated dosage (MTD),[3],above 20.0 μg/day
"C=C1CC[C@H](O)C/C1=C/C=C1\CCC[C@]2(C)[C@@H]([C@H](C)CCCC(C)(C)O)CC[C@@H]12 [25-OH-D3, reference compound]",Total GH Production*,vitamin D receptor (VDR); Molar Concentration 1 × 10^−5,775 ng/mL
same,Total GH Production*,vitamin D receptor (VDR); Molar Concentration 1 × 10^−6,1100 ng/mL
same,Total GH Production*,vitamin D receptor (VDR); Molar Concentration 1 × 10^−7,245 ng/mL
